What was measured:
[1] = system: EGFR; assay: EGF signaling through EGFR (immunoblot); assay type: cell-based; conditions: 1 μM, 6 h pre-treatment, A549 and MDA-MB-231 cells
Protocol: (§1) Immunoblot. Pulverized tissue and cells were lysed in RIP A buffer (150 mM NaCl, 50 mM Tris, pH 8.0, 1% Triton X-100, 0.5% sodium deoxycholate, 0.1% SDS, supplemented with protease and phosphatase inhibitors) and analyzed by immunoblotting. Densitometry was quantified using NIH Imaged software.

[2] = system: C57BL/6 mice, intratracheal bleomycin; assay: Bleomycin fibrosis model; assay type: in vivo; conditions: daily gavage 100 mg/kg from day 10 after bleomycin, day 21
Protocol: For histological assessment of lung collagen, frozen sections of the left lung were stained using Masson's Trichrome stain kit (American MasterTech, Lodi, Calif., USA).
Bleomycin fibrosis model. Eight-week old C57BL/6 mice were intratracheally instilled with saline or 1.9 units/kg of bleomycin (Sigma-Aldrich). Mice were implanted with osmotic pumps loaded with ellagic acid salt (24 mg/kg/day, Day 10-Day 17), fed with red raspberry diet (Day 0-Day 21), or gavaged with corilagin (100 mg/kg, Day 10-Day 21). Controls were treated with control pump, control diet, or vehicle in the same formulation. The lungs were lavaged and followed by OCT embedding for imaging or snap freezing in liquid nitrogen for protein extraction or hydroxyproline assay.
Collagen content Lung or aorta collagen content was evaluated using hydroxyproline assay. Briefly, whole left lung tissue or aorta was hydrolyzed in 1 ml 12N HCl at 110° C. for 24 h and the hydroxyproline was detected by incubating with Chloramine T and p-dimethylaminobenzaldehyde and the absorbance was measured at 550 nm. Each sample was run in triplicate. Collagen content in lung or aorta tissues was expressed as micrograms of collagen per lung or aorta and was converted from micrograms of hydroxyproline.

[3] = biological target: T1, wild-type or mutant human LOXL2 (Homo sapiens, UniProt Q9Y4K0); assay: LOX activity of conditioned media from NMuMG cells expressing wild-type or mutant LOXL2; assay type: cell-based; conditions: 1 μM, 6 h, K614N, K759R, all except the K731 mutant
T1 construct: Flag (C); expressed in transfected cells; host or cells: NMuMG cells, conditioned medium
T1 sequence (Q9Y4K0 26-774): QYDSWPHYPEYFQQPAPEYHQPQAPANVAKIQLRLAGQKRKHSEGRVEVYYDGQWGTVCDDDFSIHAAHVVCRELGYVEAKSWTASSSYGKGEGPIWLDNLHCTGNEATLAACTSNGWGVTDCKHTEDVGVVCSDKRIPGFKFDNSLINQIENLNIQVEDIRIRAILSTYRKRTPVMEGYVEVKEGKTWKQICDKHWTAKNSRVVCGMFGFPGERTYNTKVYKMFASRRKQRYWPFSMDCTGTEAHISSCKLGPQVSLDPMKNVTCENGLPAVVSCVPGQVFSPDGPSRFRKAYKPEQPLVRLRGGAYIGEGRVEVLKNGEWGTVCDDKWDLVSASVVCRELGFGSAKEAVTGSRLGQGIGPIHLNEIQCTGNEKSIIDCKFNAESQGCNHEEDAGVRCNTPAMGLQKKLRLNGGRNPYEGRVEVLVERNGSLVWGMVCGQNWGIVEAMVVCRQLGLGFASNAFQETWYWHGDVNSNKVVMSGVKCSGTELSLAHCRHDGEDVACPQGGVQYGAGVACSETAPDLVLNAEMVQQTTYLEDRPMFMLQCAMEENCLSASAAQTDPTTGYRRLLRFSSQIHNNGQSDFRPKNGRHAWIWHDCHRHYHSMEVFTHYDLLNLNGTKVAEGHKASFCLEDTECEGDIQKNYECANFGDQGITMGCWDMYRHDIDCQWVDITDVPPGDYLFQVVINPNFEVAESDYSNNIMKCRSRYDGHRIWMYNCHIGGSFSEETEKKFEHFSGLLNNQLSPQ
Protocol: LOX activity assay LOX activity of recombinant human LOXL2 or conditioned medium collected from cells expressing LOXL2 was measured using a Fluorimetric Lysyl Oxidase Activity Assay Kit (Abeam, Cambridge, Mass.) following a protocol provided by the manufacturer. Briefly, 50 μl of sample was mixed with an equal volume of assay reaction mixture containing LOX substrate, horseradish peroxidase (HRP) and HRP substrate in the presence and absence of testing inhibitors and D-penicillamine (DPA), a LOX inhibitor. The mixture was incubated for 30 min at 37° C. in darkness. The fluorescence increase was then measured with a fluorescence plate reader (BMG Lab Tech FLUOstar) at Ex/Em=540/590 nm. Sample buffer or medium alone without LOXL2 was used for determination of the background fluorescence.
Site-directed mutagenesis of LOXL2. Site-directed mutagenesis was performed to generate K614N, K731R, and K759R point mutations using Phusion Site-Directed Mutagenesis Kit (Thermo Scientific, Waltham, Mass.) according to manufacturer's instructions. A pcDNA3-hLOXL2-flag plasmid containing the cDNA fragment of wild-type human LOXL2 fused with a flag tag at the C-terminus, was used as the template DNA^18. Mutations were confirmed by DNA sequencing. […]

[4] = Solubility (statement); assay type: physicochemical
[5] = system: urinary DPD/PYD after bleomycin; assay: Urinary PYD/DPD measurements; assay type: in vivo, mice; conditions: 100 mg/kg from day 10
Protocol: Urinary PYD/DPD measurements. Pooled urine from each of 3-5 mice for each time point after bleomycin in a cohort of mice treated with vehicle or corilagin (100 mg/kg) beginning on day 10 post bleomycin were collected. Urine specimens were also collected from two cohorts of IPF patients and controls at two sites: All consenting patients with physician-established diagnosis of IPF followed in the respective ILD programs were included in sample collection. PYD/DPD levels from all the samples were measured using MicroVue EIA Assay Kit (Quidel Corp., San Diego, Calif.) along with PYD/DPD standards and the results were normalized relative to urinary creatinine. The statistical significance was analyzed using Mann-Whitney U-Test.

[6] = system: TGFβ1-induced epithelial-mesenchymal transition (EMT) in A549 adenocarcinoma cells; assay: TGFβ1-induced EMT in A549 cells (image-based screen, immunoblot); assay type: cell-based
Protocol: High throughput screen and high content imaging analysis. A549 cell-based screening of inhibitors to TGFβ1-induced EMT from a bioactive small molecule library was performed in 384-well plate format and the images were captured and analyzed using GE IN Cell 2000 as described previously^16.
as §1

O=C(O[C@@H]1O[C@@H]2COC(=O)c3cc(O)c(O)c(O)c3-c3c(cc(O)c(O)c3O)C(=O)O[C@H]([C@H]1O)[C@@H]2O)c1cc(O)c(O)c(O)c1 [corilagin, Corilagin]
EGF signaling through EGFR [1]: no effect | bleomycin-induced total lung collagen, fibronectin, snail 1, and p-smad3 [2]: marked attenuation | inhibition of LOX activity of wt and point mutant LOXL2 [3]: completely inhibited | solubility [4]: more soluble | increase of urinary DPD/PYD levels days 10-21 post bleomycin [5]: suppressed | IC50 ([6]; Homo sapiens, A549 cells stimulated with TGFβ1, 48 h): 50 nM | inhibitory effects on EMT after knockdown of LOXL2 ([6]; LOXL2 RNAi, A549 cells, 1 μM): completely abrogated

From US20210009551A1, “COMPOUNDS AND METHODS FOR TREATING FIBROSIS OR CANCER” (THE REGENTS OF THE UNIVERSITY OF CALIFORNIA, priority 2016, published 2021)
